# Experimental data taken from US20250161227A1, “PEGYLATED LIPIDS” (Acuitas Therapeutics, Inc., priority 2023, published 2025).
# System: reporter gene (firefly luciferase) expression in the liver
# Test: Luciferase expression in mouse liver following tail vein injection of mRNA lipid nanoparticles
# Type: in vivo
# Conditions: increasing concentration of compound I-5 in the lipid nanoparticle
# Protocol: Lipid nanoparticles were formulated with short chain PEG lipid at various molar ratios as described in Formulation Example 1. Relative activity was determined by measuring luciferase expression in the mouse liver 4 hours following administration via tail vein injection.
# Increasing concentration of compound I-5 reduced the overall expression of the reporter gene (firefly luciferase) in the liver (see, e.g., Table 4). Lipid nanoparticle systems that included compound I-5 at a concentration of 5 mol % reduced the amount of expression by ˜50% while lipid nanoparticle systems including compound I-5 at 10 mol % reduced to 20% of benchmark (lipid nanoparticle system with no compound I-5). […] However, 2.5 mol % compound I-5 changed the expression kinetic. […] Lipid nanoparticle systems with compound I-5 at a concentration of 2.5 mol % also provided a benefit of prolonged expression since at 16 hours the same system had ˜4-fold expression in comparison to the lipid nanoparticle system with no compound I-5.
smiles,measurement,value
CCCCCCCCCCCCCCN(CCCCCCCCCCCCCC)C(=O)CCC(=O)OCCOCCOCCOC [compound I-5],overall expression of the reporter gene (firefly luciferase) in the liver,reduced
